The source of these data is publication PMC7076174 (Frontiers in Oncology, 2020).

For one series, the system named is GSKβ. Details: method as in PMID 23305709. The note with it: cited from earlier work.
A further series relates to GSK3α. Details: method as in PMID 23305709. The note with it: cited from earlier work.
How the values of series [1] were obtained: Lithium carbonate (lithium) 300 mg was administered orally three times a day (or two times daily for patients age ≥65 years) starting on day - 3 prior to cycle 1 and on day 1 of all subsequent cycles consisting of 28 days (Figure 1). The “lead-in” period prior to cycle 1 was designed to allow for correlative studies to investigate the effects of lithium on leukemic cell GSK3 activity and to ensure achievement of adequate serum lithium concentrations prior to tretinoin exposure. The target serum lithium concentration was the laboratory-defined therapeutic range of 0.6–1.0 mmol/L based on toxicity in humans for treatment of mood disorders. Dose adjustments were made based on the serum lithium concentration (Supplementary Figure 1). Dosing of tretinoin followed a “3+3” study design with three patients sequentially enrolled at each dose level ([13]). Tretinoin was administered orally at a dose of 22.5 mg/m^2/day (dose level 1) or 45 mg/m^2/day (dose level 2) in two divided doses, from days 1 to 7 and from days 15 to 21 of a 28-day cycle.

The subject of series [2] is GSK3. The note with it: six patients with evaluable samples; CD34+ and/or CD117+ cells.
Experimental: Blood samples were collected at baseline, days 1, 8, and 30 and at the end of the study period. Specimens were processed only if ≥5% leukemic cells were present in the blood as assessed using morphologic criteria. […] Bone marrow was collected at baseline and end of study. Immunophenotyping was performed by multi-parameter flow cytometry using fluorochrome-labeled antibodies to CD11b, CD14, and CD15 as markers for monocytic and/or granulocytic differentiation ([19]–[22]). The stained samples were run on a BD Biosciences LSRII (San Jose, CA, USA) flow cytometer. Cells were concurrently stained for CD34, CD117, and CD38 for identification of the leukemic blast and stem cell populations (CD34+ CD38–). […] Phosphorylated Serine-9 GSK3β antibody was obtained from Cell Signaling Technologies (Beverly, MA, USA).
Series [3] has as its system GSK3. The note with it: cited from earlier work.
Series [4] deals with CD34+ CD38– AML stem cell population. The note with it: tretinoin 0.5 μM, 6 days; in three samples.
Text: In order to study the separate effects of GSK3 inhibition or tretinoin on AML stem cells, we used previously obtained cryopreserved blood samples from the Eastern Cooperative Oncology Group (ECOG) tumor repository of newly diagnosed and untreated AML patients (independent of this trial) to conduct in vitro studies. […] Cryopreserved cells were thawed and cultured in RPMI 1640 media (Hyclone) containing 10% fetal bovine serum (Sigma-Aldrich, St. Louis, MO, USA) and 1% final concentration penicillin and streptomycin. Amphotericin B (0.5 μg/ml) and ciprofloxacin (10 μg/ml) were added to help eliminate fungal and mycoplasma contamination in the cell culture. Cells were treated with SB415285 (10 μM) obtained from Tocris (Bristol, UK), a laboratory-grade GSK3 inhibitor which competitively binds to the ATP binding site of GSK3 ([23]), and tretinoin (0.5 μM). […] After 6 days, immunophenotyping for the CD34+ CD38– AML stem cell population was performed by flow cytometry.

Structures are written as SMILES.

Regarding `O=C1NC(=O)C(c2cnc3ccccn23)=C1c1cn2c3c(cc(F)cc13)CN(C(=O)N1CCCCC1)CC2` [LY2090314], the IC50 – broadly, the concentration that inhibits the measured activity by half – in the series on GSKβ was 0.9 nM; in the series with GSK3α, 1.5 nM.
For `O=C([O-])[O-].[Li+].[Li+]` [lithium, Lithium carbonate], in series [1] (oral lithium carbonate 300 mg 2–3 times daily, dose adjusted), the “Target serum lithium concentration (0.6–1.0 mmol/L) achieved” value is recorded as “achieved at least once in all nine patients”. Also, in series [1] (patient with delirium (DLT), third week of treatment, dose level 1), the “Serum lithium concentration at admission” value amounted to 0.28 mmol/L. In addition, the “Median increase in pGSK3β, change in mean fluorescence intensity (MFI) from baseline” value in the series with GSK3 [2] is listed as 1,093 (range, 111–1,738). Also, the “Lithium threshold concentration necessary in vivo to significantly inhibit GSK3” value with GSK3 [3] is ~ 0.8 mmol/L.
Take `CC1=C(/C=C/C(C)=C/C=C/C(C)=C/C(=O)O)C(C)(C)CCC1` [tretinoin]: the “Reduction of the CD34+ CD38– population, tretinoin alone vs combination with SB415285” value in series [4] was “comparable reduction of the CD34+ CD38– population”.
